Measurements: article PMC5245739, “Nanoscale Electric Characteristics and Oriented Assembly of Halobacterium salinarum Membrane Revealed by Electric Force Microscopy” (Nanomaterials, 2016)
No end group written: not given here.

Tests used:
purple membrane (PM) [1] = biological target: T1, purple membrane (PM) (Halobacterium salinarum, UniProt P02945); assay: SPR binding of peptide to PM (KxV5-type SPR, Langmuir adsorption model); conditions: PM patches as mobile phase
T1 construct: The culture of Halobacterium halobium and PM isolation were carried out following a standard procedure; endogenous in cells; host or cells: Halobacterium halobium culture; purple membrane isolated by the standard procedure (Oesterhelt & Stoeckenius)
T1 sequence (P02945 14-261 limits assumed): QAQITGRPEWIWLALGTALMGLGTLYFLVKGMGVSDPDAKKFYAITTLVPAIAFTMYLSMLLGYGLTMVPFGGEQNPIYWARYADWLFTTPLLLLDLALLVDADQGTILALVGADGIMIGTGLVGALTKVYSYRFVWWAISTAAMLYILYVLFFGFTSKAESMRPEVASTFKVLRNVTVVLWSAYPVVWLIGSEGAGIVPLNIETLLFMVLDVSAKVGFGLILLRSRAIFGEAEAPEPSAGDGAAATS
Protocol: Binding affinity of peptide with PM was tested by using surface plasmon resonance (SPR), which can provide real-time monitoring of biomolecular interactions [46, 47]. The binding constant between PM and the peptide was calculated based on Langmuir adsorption, in which the following equation is applicable. (4) 1/R=1/(RmaxKACA)+1/Rmax Rmax is the maximum coverage, KA is the equilibrium adsorption constant, and CA is the concentration of adsorbate solution [48].
The culture of Halobacterium halobium and PM isolation were carried out following a standard procedure [49]. Purified PM was suspended in double-distilled water and stored at 4 °C. The buffer used in the experiments consisted of 10 mM Tris HCl with a pH value of 8.0.
The characterization of the peptides-PM binding interaction was accomplished with the surface plasmon resonance technique (KxV5-type SPR, Plexera, Woodinville, WA, USA). […] The peptides were introduced to the surface of the gold chip in advance as stationary phase. SPR chip was modified by thiol molecules containing carboxyl to form self-assembled layer. 5 mL of carboxyl thiols (dithiosole-COOH, 1 μM) and hydroxy-dithiol molecule (dithiosole-OH, 10 μM) mixing ethanol solution was dropped on a SPR chip surface, and then the remaining liquid was removed by suction after 15 min of adsorption. After rinsing with ethanol, the carboxyl-terminated SAM on the chip surface underwent EDC/NHS activation. PM patches were introduced as a mobile phase. Based on the Langmuir adsorption model, the kinetic parameters and the binding constant were calculated using Plexera software.

purple membrane (PM) [2] = biological target: T1, purple membrane (PM); assay: Directional PM assembly on Peptide-3 modified silicon, AFM and surface potential; conditions: side attributed from surface potential; PM adsorbed on peptide modified silicon (EDC/NHS)
Protocol: The peptide was modified on silicon substrates via 1-ethyl-3-(3-(dimethylamino)propyl) carbodiimide (EDC)/N-hydroxysuccinimide(NHS) coupling for an oriented PM assembly. The silicon surface is treated with oxygen plasma first for hydroxyl group generation and then followed by (3-aminopropyl)triethoxysilane (APTES) modification for an amino-terminated surface. Then, introduction of succine anhydride leads to a carboxyl-terminated self-assembled monolayer (SAM) on the silicon surface, followed by EDC/NHS activation to immobilized peptides onto the silicon surface. […] This observation is consistent with the SPR measurements on the binding affinity of peptide with PM. The surface potential analyses of PM patches on silicon substrate are labeled by lines in EFM-potential images and their sectional analyses were done. […]
The topographic and surface potential images were obtained using a Bruker Dimension Icon microscope in a two-pass operation mode slightly different from the EFM measurement mentioned above. […] The deflection amplitude of the probe in lift mode was monitored, which was linearly proportional to the electrical force imposed on the probe. […]

## GARGIMIGTGLVGALTDVYSYDF
Purple membrane (PM) [1]; peptide immobilised on gold chip (carboxyl-terminated SAM, EDC/NHS), Plexera software, buffer used in the experiments 10 mM Tris HCl pH 8.0, read-out: adsorption rate constant ka
  kon: 283 M⁻¹ s⁻¹
Purple membrane (PM) [1]; peptide immobilised on gold chip (carboxyl-terminated SAM, EDC/NHS), Plexera software, buffer used in the experiments 10 mM Tris HCl pH 8.0, read-out: dissociation rate constant kd
  koff: 0.00238 s⁻¹
Purple membrane (PM) [1]; peptide immobilised on gold chip, buffer used in the experiments 10 mM Tris HCl pH 8.0, unit inferred, read-out: equilibrium dissociation constant KD
  Kd: 8.43 µM
Purple membrane (PM) [2]
  orientation of PM on peptide-modified silicon: identical orientation of the PM on surface
